Results as given in ChEMBL document CHEMBL1148415, “Effects of C2-alkylation, N-alkylation, and N,N'-dialkylation on the stability and estrogen receptor interaction of (4R,5S)/(4S,5R)-4,5-bis(4-hydroxyphenyl)-2-imidazolines” (J Med Chem, 2004).

Legend:
Estrogen receptor = molecular target: T1, Estrogen receptor (Homo sapiens, UniProt P03372); assay: Concentration required to activate luciferase expression in MCF-7-2a cells; type: functional, cell-based
T1 sequence (P03372 whole entry): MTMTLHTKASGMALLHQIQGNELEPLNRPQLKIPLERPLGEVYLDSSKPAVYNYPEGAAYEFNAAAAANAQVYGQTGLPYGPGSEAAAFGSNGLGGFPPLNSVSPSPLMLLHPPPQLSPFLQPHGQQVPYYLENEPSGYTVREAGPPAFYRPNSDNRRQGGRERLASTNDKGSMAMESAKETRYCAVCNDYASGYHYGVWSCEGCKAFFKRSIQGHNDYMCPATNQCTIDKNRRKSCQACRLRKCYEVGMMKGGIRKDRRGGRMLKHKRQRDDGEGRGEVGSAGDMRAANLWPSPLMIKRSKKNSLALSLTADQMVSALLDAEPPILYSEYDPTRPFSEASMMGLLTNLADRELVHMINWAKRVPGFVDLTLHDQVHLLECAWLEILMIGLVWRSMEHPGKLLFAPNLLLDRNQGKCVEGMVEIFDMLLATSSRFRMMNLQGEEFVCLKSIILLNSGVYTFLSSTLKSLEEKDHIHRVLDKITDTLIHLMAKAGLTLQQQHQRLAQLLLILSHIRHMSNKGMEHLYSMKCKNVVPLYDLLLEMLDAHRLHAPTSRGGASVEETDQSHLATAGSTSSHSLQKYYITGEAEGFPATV

[1] = Half life at 7.4 pH; type: ADME; conditions: pH 7.4
[2] = Rate constant at 7.4 pH; type: ADME; conditions: pH 7.4
[3] = Half life at 7.4 pH; No decomposition was observed within 55h; type: ADME; conditions: pH 7.4, 55 h
[4] = Rate constant at 7.4 pH; No decomposition was observed within 55h; type: ADME; conditions: pH 7.4, 55 h

SMILES | EC50 (Estrogen receptor) [nM] | half-life [1] [h] | k obs [2] [h⁻¹] | T1/2 [3] | k obs [4]
CC1=N[C@@H](c2c(Cl)cc(O)cc2Cl)[C@@H](c2ccc(O)cc2Cl)N1 | 5000 |  |  |  | 
COc1ccc([C@H]2N=CN[C@H]2c2ccc(OC)cc2Cl)c(Cl)c1 |  | 4.58 | 0.198 |  | 
CCN1C=[N+](CC)[C@@H](c2ccc(O)cc2Cl)[C@H]1c1ccc(O)cc1Cl | 500 |  |  | Stable | Stable
Oc1ccc([C@H]2NC=N[C@H]2c2ccc(O)cc2Cl)c(Cl)c1 |  | 5.94 | 0.15 |  | 
N[C@H](c1ccc(O)cc1Cl)[C@@H](NC=O)c1ccc(O)cc1Cl | 3000 |  |  |  | 
Oc1ccc([C@H]2N=CN[C@H]2c2ccc(O)cc2)cc1 |  | 6.36 | 0.122 |  | 
N[C@H](c1ccc(O)cc1Cl)[C@@H](N)c1ccc(O)cc1Cl | 1500 |  |  |  | 
CCCN1C=N[C@@H](c2ccc(O)cc2Cl)[C@H]1c1ccc(O)cc1Cl | 150 |  |  |  | 

The remaining lines, values ahead:

EC50 (Estrogen receptor) [nM] | half-life [1] [h] | k obs [2] [h⁻¹] | T1/2 [3] | k obs [4] | SMILES
780 |  |  |  |  | CN1C=[N+](C)[C@@H](c2ccc(O)cc2Cl)[C@H]1c1ccc(O)cc1Cl
15 | 154 | 0.004 |  |  | CCN1C=N[C@@H](c2ccc(O)cc2Cl)[C@H]1c1ccc(O)cc1Cl
 |  |  | Stable | Stable | OCCC1=N[C@H](c2ccc(O)cc2Cl)[C@H](c2ccc(O)cc2Cl)N1
65 | 13.4 | 0.052 |  |  | Oc1ccc([C@H]2N=CN[C@H]2c2c(Cl)cc(O)cc2Cl)c(Cl)c1
300 |  |  |  |  | CN1C=N[C@@H](c2ccc(O)cc2Cl)[C@H]1c1ccc(O)cc1Cl
